Data on three compounds can be found in patent US12694522B2, “Systems and methods of correcting batch effect in biological images” (The University of Hong Kong, priority 2022, dated 2026).

The subject of the experiment is H2170 cells. The experiment can be described thus: Drug treatment response of lung cancer cell line H2170 (IC50 concentration level of Table 1). It counts as cell-based. As to conditions: Homo sapiens, NCI-H2170; LUSC cell line H2170; concentration level annotated IC50* in Table 1; 24 hours treatment; read-out: IC50 (half-maximal inhibitory concentration of drug). The protocol:
Morphological profiling is emerging as a promising technique in drug screening; however, the presence of batch effects poses a significant challenge. In this context, the efficacy of the CytoMAD approach is evaluated using label-free drug response assays conducted on LUSC (H2170) cells treated with docetaxel, afatinib, and gemcitabine at various concentrations across two distinct batches. This comprises 18 distinct drug treatment conditions, encompassing five concentration levels and one negative control. During the CytoMAD training process, only batch information and drug types are provided, withholding specific drug concentration data. This allows for the evaluation of the model's self-supervised capability to capture morphological changes across concentrations.
Comparative analysis of phenotypic distributions across different drug treatments (representing different colored violins) showcases preserved patterns before and after the implementation of CytoMAD, confirming its capacity to retain cellular information. To further verify the cellular phenotypic preservation capacity of CytoMAD model, treatment response experiment is conducted with lung cancer cell line H2170. In this experiment, H2170 are treated with drugs of different mechanism of action (MoA) (i.e. Docetaxel as microtubule stabilizing agent, Afatinib as tyrosine kinase inhibitor in targeted therapy and Gemcitabine as antimetabolite), each with 5 concentration levels and a negative control with dimethyl sulfoxide (DMSO) for 24 hours as listed in Table 1. They are imaged using multi-ATOM for single-cell BF and QPI images on 6 days, forming 2 batches with ~100,000 cells per drug. Basically, this dataset consists of 2 batches of data, with each batch containing 3 different drug treatments and each treatment comprising 6 different concentration conditions.
For the compound `CN(C)C/C=C/C(=O)Nc1cc2c(Nc3ccc(F)c(Cl)c3)ncnc2cc1O[C@H]1CCOC1` [Afatinib], the IC50 stood at 19 nM.
As to `CC(=O)O[C@@]12CO[C@@H]1C[C@H](O)[C@@]1(C)C(=O)[C@H](O)C3=C(C)[C@@H](OC(=O)[C@H](O)[C@@H](NC(=O)OC(C)(C)C)c4ccccc4)C[C@@](O)([C@@H](OC(=O)c4ccccc4)[C@H]21)C3(C)C` [Docetaxel], the IC50 was 3.76 nM.
Regarding `Nc1ccn([C@@H]2O[C@H](CO)[C@@H](O)C2(F)F)c(=O)n1` [Gemcitabine], the IC50 is 7.51 nM.
